Usually EC50 stands for the concentration giving half of the maximal effect. A high value points to lower potency in that assay. Broadly, the IC50 is the midpoint of a concentration-inhibition curve. Higher therefore signals lower potency.

The source of these data is ChEMBL document CHEMBL1141242, “Estrogen receptor beta selective ligands: discovery and SAR of novel heterocyclic ligands” (Bioorg Med Chem Lett, 2005).

Assay [1] deals with T1, Estrogen receptor (Homo sapiens, UniProt P03372).
T1 sequence (P03372 whole entry): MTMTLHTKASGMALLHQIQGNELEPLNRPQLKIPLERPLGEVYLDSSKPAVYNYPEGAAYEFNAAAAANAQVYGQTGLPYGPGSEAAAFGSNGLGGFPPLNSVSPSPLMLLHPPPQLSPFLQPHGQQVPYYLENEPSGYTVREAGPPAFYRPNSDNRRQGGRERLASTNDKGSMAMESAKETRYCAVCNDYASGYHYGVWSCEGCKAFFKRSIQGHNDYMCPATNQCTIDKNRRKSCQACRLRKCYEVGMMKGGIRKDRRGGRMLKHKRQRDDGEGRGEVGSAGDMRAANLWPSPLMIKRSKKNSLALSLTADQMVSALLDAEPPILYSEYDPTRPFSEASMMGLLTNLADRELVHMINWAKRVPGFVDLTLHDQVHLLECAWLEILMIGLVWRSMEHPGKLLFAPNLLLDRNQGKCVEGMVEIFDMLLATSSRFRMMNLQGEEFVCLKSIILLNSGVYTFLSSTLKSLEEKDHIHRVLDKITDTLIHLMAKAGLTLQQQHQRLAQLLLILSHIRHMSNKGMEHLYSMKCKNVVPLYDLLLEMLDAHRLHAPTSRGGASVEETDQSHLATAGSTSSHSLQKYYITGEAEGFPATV
Description: Effect on ERalpha in MCF7 cell line transfected with ER responsive luciferase reporter

In assay [2] the target is T1, Estrogen receptor. As to the kind of experiment: biochemical.
The target in assay [3] is Estrogen receptor beta (Homo sapiens, UniProt Q92731). As to the kind of experiment: biochemical.
Sequence of Estrogen receptor beta (Homo sapiens, UniProt Q92731) (Q92731 whole entry): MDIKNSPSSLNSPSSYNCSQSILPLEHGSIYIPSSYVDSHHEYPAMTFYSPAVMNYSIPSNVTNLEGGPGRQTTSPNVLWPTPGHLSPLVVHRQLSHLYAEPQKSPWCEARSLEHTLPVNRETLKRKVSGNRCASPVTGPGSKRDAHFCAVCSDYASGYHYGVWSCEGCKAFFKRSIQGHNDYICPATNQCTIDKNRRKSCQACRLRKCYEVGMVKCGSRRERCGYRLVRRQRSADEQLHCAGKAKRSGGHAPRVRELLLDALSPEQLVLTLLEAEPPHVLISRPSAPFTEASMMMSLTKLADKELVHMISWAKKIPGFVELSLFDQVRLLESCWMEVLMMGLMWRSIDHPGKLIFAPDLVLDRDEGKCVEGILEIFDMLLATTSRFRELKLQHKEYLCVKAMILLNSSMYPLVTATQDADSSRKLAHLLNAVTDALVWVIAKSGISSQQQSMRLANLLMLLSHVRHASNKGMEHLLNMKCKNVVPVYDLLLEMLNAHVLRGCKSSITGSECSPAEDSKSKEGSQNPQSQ
Assay [4] has as its target Estrogen receptor beta (Rattus norvegicus, UniProt Q62986).
Description: Effect on ERbeta in rat ovary granulosa cell line transfected with ER responsive luciferase reporter

Sequence of Estrogen receptor beta (Rattus norvegicus, UniProt Q62986) (Q62986 whole entry): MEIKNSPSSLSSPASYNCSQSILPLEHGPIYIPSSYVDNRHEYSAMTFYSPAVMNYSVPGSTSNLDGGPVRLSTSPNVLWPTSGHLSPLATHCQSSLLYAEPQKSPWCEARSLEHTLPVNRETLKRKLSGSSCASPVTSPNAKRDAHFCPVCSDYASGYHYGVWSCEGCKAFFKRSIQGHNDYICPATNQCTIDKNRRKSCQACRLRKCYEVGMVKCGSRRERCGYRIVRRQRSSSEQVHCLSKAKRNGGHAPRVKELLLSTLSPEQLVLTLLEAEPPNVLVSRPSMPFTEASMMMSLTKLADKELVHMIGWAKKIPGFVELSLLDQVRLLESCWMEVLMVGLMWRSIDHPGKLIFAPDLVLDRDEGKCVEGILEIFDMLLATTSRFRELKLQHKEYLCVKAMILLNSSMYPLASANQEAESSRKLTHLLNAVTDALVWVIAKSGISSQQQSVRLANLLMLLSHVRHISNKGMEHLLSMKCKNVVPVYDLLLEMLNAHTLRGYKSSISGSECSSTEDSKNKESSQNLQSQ

`Cn1cccc1-c1nc2ccccc2n1-c1ccc(O)cc1`: the EC50 is greater than 1000 nM on Estrogen receptor [1] and 40.8 nM on Estrogen receptor beta [4]. For the same compound, the IC50 stood at 2940 nM against Estrogen receptor [2] and 28.1 nM on Estrogen receptor beta [3].
On to `Oc1ccc(-c2[nH]c3ccccc3c2-c2ccccc2)cc1`, for which the values for the IC50 against Estrogen receptor [2] and at Estrogen receptor beta [3] were 8310 nM and 355 nM, respectively.
As to `Oc1ccc(-c2noc(C(F)(F)F)c2-c2ccccc2)cc1`, the IC50 against Estrogen receptor [2] stood at 8.5 nM; at Estrogen receptor beta [3], 2.4 nM.
On the same counts, the results for `Oc1ccc(-c2[nH]c3ccccc3c2-c2ccc(O)cc2)cc1` are 94.8 nM and 11.9 nM.
On the same counts, the results for `Oc1ccc(-n2c(-c3ccccc3)nc3ccccc32)cc1` are 1800 nM and 137 nM.
On the same counts, the results for `c1ccc(-c2[nH]c3ccccc3c2-c2ccccc2)cc1` are 6950 nM and 171 nM.
In the case of `Oc1ccc(-c2[nH]c(C(F)(F)F)nc2-c2ccccc2)cc1`, the EC50 on Estrogen receptor [1] amounted to 243 nM; on Estrogen receptor beta [4] it was 6.7 nM. The figures for the IC50 against Estrogen receptor [2] and against Estrogen receptor beta [3] were 403 nM and 15.1 nM, respectively.
As for `Oc1ccc(-n2c(-c3cccs3)nc3ccccc32)cc1`, the IC50 was greater than 6260 nM against Estrogen receptor [2] and 49.7 nM at Estrogen receptor beta [3].
In the case of `Oc1ccc(-n2c(-c3ccccc3Cl)nc3ccccc32)cc1`, the IC50 was found to be 1730 nM on Estrogen receptor [2] and 149 nM on Estrogen receptor beta [3].
For the compound `Oc1ccc(-c2c(-c3ccccc3)[nH]c3ccccc23)cc1`, the EC50 at Estrogen receptor [1] came out at 38.5 nM; on Estrogen receptor beta [4] it was 1.09 nM. Also, the IC50 at Estrogen receptor [2] was 24 nM; against Estrogen receptor beta [3], 1.12 nM.
Consider `Cc1nocc1-c1nc2ccccc2n1-c1ccc(O)cc1`, for which the IC50 against Estrogen receptor [2] turned out to be 1160 nM; on Estrogen receptor beta [3] it was 14.3 nM.
